Reference: ChEMBL document CHEMBL6078703, “Discovery of Novel Thiophene-Based Baloxavir Derivatives as Potent Cap-Dependent Endonuclease Inhibitors for Influenza Treatment” (J Med Chem, 2024)

Assays:
[1] = test system: Influenza A virus; test: Antiviral activity against influenza strain A/WSN/1933 (H1N1) infected in MDCK cells assessed as reduction of virus-induced cytopathic effect measured after 2 days incubation; assay type: functional, organism-based; details: 48 h
[2] = test system: Influenza A virus; test: Antiviral activity against influenza strain A/Aichi/ 2/1968 (H3N2) infected in MDCK cells assessed as reduction of virus-induced cytopathic effect measured after 2 days incubation; assay type: functional, organism-based; details: 48 h
[3] = Cytotoxicity against dog MDCK cells assessed as cell viability measured after 48 hrs by CCK-8 assay; assay type: toxicity, cell-based, Canis lupus familiaris
[4] = Selectivity index, ratio of CC50 for dog MDCK cells to EC50 for antiviral activity against influenza strain A/WSN/1933 (H1N1) infected in MDCK cells; assay type: toxicity, cell-based; details: read-out: Selectivity Index
[5] = Selectivity index, ratio of CC50 for dog MDCK cells to EC50 for antiviral activity against influenza strain A/Aichi/ 2/1968 (H3N2) infected in MDCK cells; assay type: toxicity, cell-based; details: read-out: Selectivity Index
[6] = Metabolic stability in human liver microsomes assessed as half life measured up to 60 mins by LC-MS/MS analysis; assay type: ADME, Microsome
[7] = Metabolic stability in mouse liver microsomes assessed as half life measured up to 60 mins by LC-MS/MS analysis; assay type: ADME, Microsome
[8] = Metabolic stability in human liver microsomes assessed as intrinsic clearance measured up to 60 mins by LC-MS/MS analysis; assay type: ADME, Microsome; details: read-out: CLH
[9] = Metabolic stability in mouse liver microsomes assessed as intrinsic clearance measured up to 60 mins by LC-MS/MS analysis; assay type: ADME, Microsome; details: read-out: CLH

Structure (SMILES)	EC50 [1] [nM]	EC50 [2] [nM]	CC50 at 48 h [3] [nM]	selectivity ratio [4]	selectivity ratio [5]	half-life [6] [h]	half-life [7] [h]	CLint scaled [8] [mL/min/kg]	CLint scaled [9] [mL/min/kg]
O=C1c2c(O)c(=O)ccn2N([C@@H](c2ccc(F)c(F)c2)c2ccc(-c3ccccc3)s2)[C@@H]2COCCN12	36.2	11.1	39800	1100	3580	–	–	–	–
O=C1c2c(O)c(=O)ccn2N([C@@H](c2cccc(F)c2)c2cccs2)[C@@H]2COCCN12	5.54	15.2	> 50000	> 9020	> 3290	–	–	–	–
O=C1c2c(O)c(=O)ccn2N([C@H](c2ccc(Br)c(Br)c2)c2cccs2)[C@@H]2COCCN12	16.2	17.6	24900	1540	1410	–	–	–	–
O=C1c2c(O)c(=O)ccn2N([C@H](c2ccc(F)c(F)c2)c2cccs2)[C@@H]2COCCN12	8.04	3.08	25200	3140	8200	4.45	7.7	4.68	11.9
O=C1c2c(O)c(=O)ccn2N([C@@H](c2ccc(F)cc2)c2cccs2)[C@@H]2COCCN12	5.06	1.65	37600	7440	22800	12.8	23.1	1.62	3.96
O=C1c2c(O)c(=O)ccn2N([C@@H](c2cc(F)c(F)c(F)c2)c2cccs2)[C@@H]2COCCN12	9.34	5.43	> 50000	> 5350	> 9210	–	–	–	–
O=C1c2c(O)c(=O)ccn2N([C@H](c2cccc(F)c2)c2cccs2)[C@@H]2COCCN12	3.49	26	34300	9840	1320	–	–	–	–
O=C1c2c(O)c(=O)ccn2N([C@H](c2ccc(F)c(F)c2)c2ccc(Cl)s2)[C@@H]2COCCN12	15.9	30.8	24100	1510	783	–	–	–	–
O=C(O)Cc1ccccc1Nc1c(Cl)cccc1Cl [DICLOFENAC]	–	–	–	–	–	–	–	221	136
O=C1c2c(O)c(=O)ccn2N([C@@H](c2ccccc2)c2cccs2)[C@@H]2COCCN12	39.8	21.8	> 50000	> 1260	> 2300	–	–	–	–
Cc1ccc([C@@H](c2cccs2)N2[C@@H]3COCCN3C(=O)c3c(O)c(=O)ccn32)cc1C	6.67	1.79	28000	4190	15600	–	–	–	–
Cc1ccc([C@H](c2cccs2)N2[C@@H]3COCCN3C(=O)c3c(O)c(=O)ccn32)cc1C	47.8	8.11	20500	429	2530	–	–	–	–
O=C1c2c(O)c(=O)ccn2N([C@@H](c2ccc(F)c(F)c2)c2ccc(Cl)s2)[C@@H]2COCCN12	29.2	51.9	19400	663	373	–	–	–	–
O=C1c2c(O)c(=O)ccn2N([C@@H](c2cccs2)c2cc(F)c(F)c(F)c2F)[C@@H]2COCCN12	5.64	7.78	> 50000	> 8860	> 6430	–	–	–	–
O=C1c2c(O)c(=O)ccn2N([C@H](c2ccccc2)c2cccs2)[C@@H]2COCCN12	36.4	46.8	> 50000	> 1370	> 1070	–	–	–	–
O=C1c2c(O)c(=O)ccn2N([C@@H](c2ccc(Br)c(Br)c2)c2cccs2)[C@@H]2COCCN12	35.6	6.9	> 50000	> 1400	> 7250	–	–	–	–
O=C1c2c(O)c(=O)ccn2N([C@H](c2cccs2)c2cc(F)c(F)c(F)c2F)[C@@H]2COCCN12	12.4	13.8	> 50000	> 4020	> 3630	–	–	–	–
O=C1c2c(O)c(=O)ccn2N([C@H](c2ccc(F)c(F)c2)c2ccc(Br)s2)[C@@H]2COCCN12	49.1	28.3	17300	353	613	–	–	–	–
O=C1c2c(O)c(=O)ccn2N([C@H](c2ccc(Cl)c(Cl)c2)c2cccs2)[C@@H]2COCCN12	56.2	13	12100	215	931	–	–	–	–
O=C1c2c(O)c(=O)ccn2N([C@H](c2ccc(F)cc2)c2cccs2)[C@@H]2COCCN12	3.19	–	–	8390	–	–	–	–	–
O=C1c2c(O)c(=O)ccn2N([C@H](c2ccc(F)c(F)c2)c2cc3ccccc3s2)[C@@H]2COCCN12	20.9	20.3	> 50000	> 2400	> 2460	–	–	–	–
O=C1c2c(O)c(=O)ccn2N([C@@H](c2ccc(F)c(F)c2)c2ccc(Br)s2)[C@@H]2COCCN12	30.2	31.6	19700	652	623	–	–	–	–
O=C1c2c(O)c(=O)ccn2N([C@H](c2cc(F)c(F)c(F)c2)c2cccs2)[C@@H]2COCCN12	1.91	21.9	26000	13600	1190	–	–	–	–
O=C1c2c(O)c(=O)ccn2N([C@@H](c2ccc3ccccc3c2)c2cccs2)[C@@H]2COCCN12	42.3	53.6	40600	960	758	–	–	–	–
O=C1c2c(O)c(=O)ccn2N([C@H](c2ccc(F)c(F)c2)c2ccc(-c3ccccc3)s2)[C@@H]2COCCN12	20.4	3.75	48500	2380	12900	–	–	–	–
O=C1c2c(O)c(=O)ccn2N([C@@H](c2ccc(Cl)c(Cl)c2)c2cccs2)[C@@H]2COCCN12	44.8	60.6	32600	729	539	–	–	–	–
O=C1c2c(O)c(=O)ccn2N([C@H](c2ccc3ccccc3c2)c2cccs2)[C@@H]2COCCN12	22.8	76.3	17200	752	–	–	–	–	–
O=C1c2c(O)c(=O)ccn2N([C@@H](c2ccc(F)c(F)c2)c2cc3ccccc3s2)[C@@H]2COCCN12	42.4	5.98	> 50000	> 1180	> 8360	–	–	–	–
